Measurements as given in patent publication US20080221131A1, “THIENOPYRIMIDINEDIONES AND THEIR USE IN MODULATION OF AUTOIMMUNE DISEASE” (priority 2003, published 2008).

Test system: PMA/ionomycin-stimulated PBMC proliferation
Experiment: Inhibition of PMA/ionomycin-stimulated peripheral blood mononuclear cell proliferation
Assay type: cell-based
Conditions: human PBMC, PMA 0.5 ng/ml + ionomycin 500 ng/ml, 72 hours, 3H-thymidine incorporation; read-out: PIA50 (the source's name) (converted)
Description: Inhibition of PMA/Ionomycin-Stimulated Peripheral Blood Mononuclear Cell Proliferation
The assay for PMA/ionomycin-stimulated PBMC proliferation was performed in 96-well flat-bottomed microtitre plates. Compounds were prepared as 10 mM stock solutions in dimethyl sulfoxide. A 50-fold dilution of this was prepared in RPMI and serial dilutions were prepared from this solution. 10 μl of the 50-fold diluted stock, or dilutions of it, were added to the well to give concentrations in the assay starting at 9.5 μM and going down. Into each well was placed 1×10^5 PBMC, prepared from human peripheral blood from a single donor, in RPMI1640 medium supplemented with 10% human serum, 2 mM glutamine and penicillin/streptomycin. Phorbol myristate acetate (PMA) (0.5 ng/ml final concentration) and ionomycin (500 ng/ml final concentration) were added to these cells in supplemented RPMI1640 medium (as above) so that the final volume of the assay was 0.2 ml. The cells were incubated at 37° C. in a humidified atmosphere at 5% carbon dioxide for 72 hours. ^3H-Thymidine (0.5 μCi) was added for the final 6 hours of the incubation. The level of radioactivity incorporated by the cells was then determined and this is a measure of proliferation.

## Cc1nn(-c2nccs2)c(C)c1Cc1sc2c(c1C(=O)N1C[C@H](O)CO1)c(=O)n(C)c(=O)n2C(C)C [Example 3, (S)-2-[[6-[[3,5-Dimethyl-1-(2-thiazolyl)-1H-pyrazol-4-yl]methyl]-1,2,3,4-tetrahydro-3-methyl-1-(1-methylethyl)-2,4-dioxothieno[2,3-d]pyrimidin-5-yl]carbonyl]-4-isoxazolidinol]
  IC50: 0.851 nM

## Cc1nn(-c2ncccn2)c(C)c1Cc1sc2c(c1C(=O)N1C[C@H](O)CO1)c(=O)n(C)c(=O)n2C(C)C [Example 1, 6-[[3,5-dimethyl-1-(2-pyrimidinyl)-1H-pyrazol-4-yl]methyl]-5-[[(4S)-4-hydroxy-2-isoxazolidinyl]carbonyl]-3-methyl-1-(1-methylethyl)thieno[2,3-d]pyrimidine-2,4(1H,3H)-dione]
  IC50: 5.01 nM
